Test results from publication PMC7044277 (Nature Communications, 2020).
“And” between values parts separate entries of the source, which are not always exact repeats. Equal entries are not always repeated.

How the values were obtained:
Assay type in all cases: cell-based
Set-up in all cases: GPCRome screening signal at PTGIR / GPCRome screening signal at PTH1R / GPCRome screening signal at PTH2R / GPCRome screening signal at QRFP / GPCRome screening signal at RXFP2 / GPCRome screening signal at RXFP3 / GPCRome screening signal at RXFP4 / GPCRome screening signal at S1PR2 / GPCRome screening signal at S1PR3 / GPCRome screening signal at S1PR4 / GPCRome screening signal at S1PR5 / GPCRome screening signal at SCTR / GPCRome screening signal at SSTR2 / GPCRome screening signal at SSSTR / GPCRome screening signal at SSTR4 / GPCRome screening signal at SSTR5 / GPCRome screening signal at SUCNR1 / GPCRome screening signal at TA1 / GPCRome screening signal at TAAR2 / GPCRome screening signal at TAAR5 / GPCRome screening signal at TAAR6 / GPCRome screening signal at TAAR8 / GPCRome screening signal at TACR1 / GPCRome screening signal at TACR2 / GPCRome screening signal at TACR3 / GPCRome screening signal at TBXA2R / GPCRome screening signal at TSHR / GPCRome screening signal at UTS2R / GPCRome screening signal at VIPR2 / GPCRome screening signal at GPR68 no V2 Tail / GPCRome screening signal at GRM2 / GPCRome screening signal at GRM3: reference not given here
320 non-olfactory GPCRs [1] = target: T1, 320 non-olfactory GPCRs (Homo sapiens, UniProt Q9BXA5); conditions: receptor SUCNR1
T1 construct: expressed in transfected cells; host or cells: HTLA cells
T1 sequence (Q9BXA5 whole entry): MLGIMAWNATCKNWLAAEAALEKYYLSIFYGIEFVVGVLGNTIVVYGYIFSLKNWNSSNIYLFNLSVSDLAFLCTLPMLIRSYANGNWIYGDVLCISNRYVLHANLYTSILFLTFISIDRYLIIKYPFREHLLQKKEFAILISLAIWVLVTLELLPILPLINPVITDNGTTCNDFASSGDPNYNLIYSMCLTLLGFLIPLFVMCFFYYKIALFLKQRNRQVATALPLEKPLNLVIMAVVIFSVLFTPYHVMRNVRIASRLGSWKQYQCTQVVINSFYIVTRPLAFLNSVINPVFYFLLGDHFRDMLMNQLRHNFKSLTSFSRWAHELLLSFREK

320 non-olfactory GPCRs [2] = target: T2, 320 non-olfactory GPCRs (Homo sapiens, UniProt O14804); conditions: receptor TAAR5
T2 construct: expressed in transfected cells; host or cells: HTLA cells
T2 sequence (O14804 whole entry): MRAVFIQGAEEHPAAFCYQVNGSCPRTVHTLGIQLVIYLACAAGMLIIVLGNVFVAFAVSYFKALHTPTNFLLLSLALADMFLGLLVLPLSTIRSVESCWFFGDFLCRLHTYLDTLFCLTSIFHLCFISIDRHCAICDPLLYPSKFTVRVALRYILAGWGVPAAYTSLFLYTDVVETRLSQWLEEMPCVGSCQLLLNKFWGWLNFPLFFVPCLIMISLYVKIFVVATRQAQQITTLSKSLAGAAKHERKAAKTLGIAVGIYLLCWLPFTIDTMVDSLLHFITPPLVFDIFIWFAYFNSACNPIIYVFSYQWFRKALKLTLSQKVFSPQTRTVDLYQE

320 non-olfactory GPCRs [3] = target: T3, 320 non-olfactory GPCRs (Homo sapiens, UniProt P21731); conditions: receptor TBXA2R
T3 construct: expressed in transfected cells; host or cells: HTLA cells
T3 sequence (P21731 whole entry): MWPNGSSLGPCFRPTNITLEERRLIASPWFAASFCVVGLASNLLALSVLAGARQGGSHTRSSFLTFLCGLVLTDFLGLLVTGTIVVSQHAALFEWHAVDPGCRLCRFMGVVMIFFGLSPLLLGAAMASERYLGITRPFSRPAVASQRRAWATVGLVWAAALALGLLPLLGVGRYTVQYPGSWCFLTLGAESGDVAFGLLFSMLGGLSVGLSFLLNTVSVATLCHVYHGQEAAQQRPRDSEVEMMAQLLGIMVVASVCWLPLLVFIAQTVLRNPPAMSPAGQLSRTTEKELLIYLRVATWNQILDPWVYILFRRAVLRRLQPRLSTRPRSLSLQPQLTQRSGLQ

[4] = Fig_5f, single replicate values
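For GPCRome agonism screen response in this document: fold over basal response of each receptor without drug.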

CCOc1ccccc1CCC(C)NCC1(O)CCCCC1.Cl (racemic) [Fig_5f]
GPCRome screening signal at SUCNR1 (320 non-olfactory GPCRs [1]; [4]): 2.588 and 2.79 and 1.592 and 0.9771
GPCRome screening signal at TAAR5 (320 non-olfactory GPCRs [2]; [4]): 1.144 and 1.4451 and 1.369 and 1.654
GPCRome screening signal at TBXA2R (320 non-olfactory GPCRs [3]; [4]): 1.076 and 0.505 and 0.6523 and 0.5698

CCOc1cccc2cc(C(C)NCC3(O)CCCCC3)oc12 (stereo not drawn) [O4LE6]
GPCRome agonism screen response (320 non-olfactory GPCRs [1]; replicate values, Fig_4g): 2.7145 and 1.744 and 1.03 and 1.189
GPCRome agonism screen response (320 non-olfactory GPCRs [2]; replicate values, Fig_4g): 1.083 and 1.815 and 1.566 and 2.161
GPCRome agonism screen response (320 non-olfactory GPCRs [3]; replicate values, Fig_4g): 0.6818 and 0.496 and 0.4453 and 0.576
